Experimental data taken from patent US8829028B2, “5-HT4 receptor antagonists for the treatment of heart failure” (Serodus AS, priority 2002, dated 2014).
Values joined by “and” are separate entries in the source; they are usually repeats but may differ in a detail not shown here. Equal entries are not always repeated. Structures can show the parent of a compound that is named as a salt. Each block holds one compound with its values, some of them ahead of it.

Assays:
[1] = test system: papillary muscles from Chronic heart failure rats; assay: Inotropic and lusitropic response of isolated papillary muscles from post-MI Chronic heart failure rats (organ bath, 1 Hz); type: cell-based, rat; settings: for RT (TR20−TPF), relaxation time / TPF (time to peak force) / TR20 (time to relaxation to 20% level): CHF, serotonin 10 μmol/l, then isoprenaline 100 μmol/l
Experimental: (§1) Male, Wistar rats (Mollegaard Breeding and Research Centre, Skensved, Denmark), weighing about 320 g were intubated and ventilated with 68% N2O, 29% O2 and 2-3% Isofluran (Abbot Laboratories, USA). An extensive myocardial infarction (MI) was induced by a proximal ligation of the left coronary artery. Six weeks later the rats were anaesthetized and ventilated on the respirator with 2.2% Isofluran. Left ventricular pressures were measured (Sjaastad et al., 2000, J. Appl. Physiol, 89: 1445-1454), and Chronic heart failure rats were included in the study if left ventricular end diastolic pressure (LVEDP) was >15 mm Hg. […] The sham-operated animals (SHAM) were subjected to the same surgical procedure but the coronary artery was not ligated.
(§2) Hearts were isolated from the anaesthetized animals (see above) and carefully dissected free of connective tissue and transferred to ice cold 0.9% NaCl and weighed. The aorta was cannulated, and the coronaries were perfused at 31° C. with a relaxing solution containing: (mmol/l) NaCl 118.3; KCl 3.0; CaCl2 0.5; MgSO4 4.0; KH2PO4 2.4; NaHCO3 24.9; glucose 10.0; mannitol 2.2 and equilibrated with 95% O2/5% CO2 at 31° C. (pH 7.4). Posterior left ventricular papillary muscle was ligated
(§3) The muscles were transported to a separate laboratory and mounted in organ baths. […] The papillary muscles were mounted in organ baths containing the relaxing solution and allowed to adapt at 31° C. for about 20 minutes before the solution was changed to one containing the following (in mmol/l): NaCl 119.2; KCJ 3.0; CaCl2 2.0; MgSO4 1.2; KH2PO4 2.4; NaHCO3 24.9; glucose 10.0; mannitol 2.22 and equilibrated with 95% O2/5% CO2 at 31° C. (pH 7.4).
(§4) The muscles were field stimulated with alternating polarity at 1 Hz with impulses of 5 msec duration and current about 20% above individual threshold (10-15 mA, determined in each experiment). The isometrically contracting muscles were stretched to the maximum of their length-tension curve. The force was recorded and analysed as previously described (Skomedal et al., 1997, J. Pharmacol. Exp. Ther. 280: 721-729). The muscles were allowed to equilibrate for 90 minutes. […] Averaged contraction-relaxation cycles (CRC) were calculated for different experimental periods, and these cycles were used to determine descriptive parameters like maximal development of force (dF/dt)max, time to peak force (TPF) and time to relaxation to 20% level (TR2O). Relaxation time (RT) was calculated as TR2O-TPF. (dF/dt)max was used as an index of contractility. Inotropic responses induced by agonists were expressed by increase in (dF/dt)max. RT was used as index of relaxation. Lusitropic responses were expressed as reduction in RT. Mechanical response at the end of the equilibrium period was used as the control response.
(§5) Agonist was added cumulatively or as a single bolus directly to the organ baths and was completely mixed in the solution within 2-3 seconds. […] The different agonists were added directly to the organ baths in increasing concentrations until supramaximal concentrations of agonist were obtained with respect to maximal inotropic response.
(§6) The responses for each concentration of agonist were generally calculated as percent of maximal response. The concentration-response curves constructed from papillary muscle experiment were constructed according to Ariens and Simonis (1964, supra), by estimating centiles (EC10 to EC100) for each single experiment and calculating the corresponding means. This calculation provides mean curves that express the response as fractional response or percent of maximum and display horizontal positioning and the correct mean slope of the curves. The horizontal positioning of the concentration-response curves was expressed as pEC50-values (=−log EC50).

[2] = test system: papillary muscles from sham-operated rats; assay: Inotropic and lusitropic response of isolated papillary muscles from sham-operated rats; type: cell-based, rat; settings: for RT (TR20−TPF), relaxation time / TPF (time to peak force) / TR20 (time to relaxation to 20% level): Sham, N=6, serotonin 10 μmol/l, then isoprenaline 100 μmol/l
Experimental: as §1, §2, §3, §4, §5, §6

5-HT4 receptor [3] = target: T1, 5-HT4 receptor (Rattus norvegicus, UniProt Q62758); assay: Antagonism of the serotonin inotropic response by 5-HT4 antagonists in post-MI rat papillary muscle (reversal, curve shift, Schild Kb); type: cell-based; settings: for block of the inotropic response to serotonin: each antagonist added as printed
T1 construct: The papillary muscles were mounted in organ baths; from tissue; host or cells: rat posterior left ventricular papillary muscle (post-MI or aortic-banding heart failure)
T1 sequence (Q62758 whole entry): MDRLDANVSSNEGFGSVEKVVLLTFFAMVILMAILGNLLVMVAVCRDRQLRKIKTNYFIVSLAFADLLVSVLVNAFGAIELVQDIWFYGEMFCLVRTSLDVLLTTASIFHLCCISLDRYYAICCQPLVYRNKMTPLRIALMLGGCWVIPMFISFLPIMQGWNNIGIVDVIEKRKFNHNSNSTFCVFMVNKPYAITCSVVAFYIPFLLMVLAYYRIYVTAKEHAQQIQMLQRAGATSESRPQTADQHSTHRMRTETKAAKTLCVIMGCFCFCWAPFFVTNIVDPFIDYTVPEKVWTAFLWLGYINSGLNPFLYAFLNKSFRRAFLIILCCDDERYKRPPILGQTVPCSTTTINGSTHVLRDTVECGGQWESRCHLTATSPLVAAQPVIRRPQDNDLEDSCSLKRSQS
Experimental: as §4, §5
as §6, with “EC50). Data are expressed as mean±standard error of the mean (SEM) and the number of animals expressed as n. The significance levels of differences were calculated according to Students t-test. P<0.05 is considered statistically significant. The inhibition constants Kb were calculated from the Schild equation, based on the relative shifts of the concentration-response curves for receptor stimulation.” for “EC50).”

[4] = test system: papillary muscles from MInf rats; assay: Inotropic response to serotonin in papillary muscles from MInf rats (infarction without CHF); type: cell-based, rat; settings: serotonin 10 μM
Text: The magnitude of the response correlated positively with infarction size up to 30-40% of the inner myocardial surface in MInf animals (FIG. 8A). In MInf hearts with infarct size 30-40% the inotropic effect was of the same magnitude as in CHF hearts which all had infarct size >40%. A positive correlation with infarction size was also observed for 5-HT4(b) and ANP mRNA expression, whereas 5-HT2A mRNA levels were unchanged (FIG. 8B).

5-HT4 receptor [5] = target: T1, 5-HT4 receptor; assay: 5-HT4 receptor-mediated inotropic response in papillary muscle of CHF rat 6 weeks after aortic banding; type: cell-based; settings: serotonin 10 μM; prazosin, timolol, atropine 1 μM each
Experimental: Trans-aortic constriction (aortic banding) of the ascending aorta was induced in 200 g male Wistar rats under anaesthesia, induced by 63% N2O, 32% O2 and 5% Isoflurane and maintained by 66% N2O, 33% O2 and 1-2% Isoflurane. A right-sided thoracotomi was performed through a 3-4 cm long cutaneous incision, the pericardium was opened and the ascending aorta identified and dissected free of surrounding tissue. A ligature was knit around the ascending aorta and a metal probe with diameter 0.9 mm. The metal probe was then removed. The result was a constriction of the ascending aorta with internal diameter about 0.9 mm. The thorax was then closed with 3-0 silk sutures and the skin closed with Dexon 1 sutures. […]
Papillary muscle was extracted from a CHF rat 6 weeks after aortic banding as described above. osterior left ventricular papillary muscle was prepared, mounted in organ bath, equilibrated and field stimulated at 1 Hz (Sjaastad et al. 2003 supra), and the contraction-relaxation cycles (CRCs) were recorded and analysed as previously described (Skomedal et al. 1997, J. Pharmacol Exp Ther 280: 721-729) (Sjaastad et al., 2003, supra) with respect to maximal developed force (Fmax), maximal development of force (dF/dt)max, time to peak force (TPF), time to relaxation to 20% level (TR20) and relaxation time (RT=TR20-TPF).

[6] = test system: post-infarction congestive heart failure (CHF) rats; assay: Six-week treatment of post-infarction CHF rats with a 5-HT4 antagonist, papillary muscle function afterwards; type: in vivo, rat; settings: 50 mM SB207266 in s.c. miniosmotic pumps, six weeks
Text: An extensive myocardial infarction (MI) was induced in 320 g male Wistar rats under anaesthesia (68% N2O, 29% O2 and 2-3% Isofluran) by a proximal ligation of the left coronary artery (Sjaastad et al. 2003, supra). Three days later, rats were included in the study if the rats had both clinical signs of congestive heart failure (tachypnoe and forced ventilation) and a large myocardial infarction as verified by echocardiography. Rats included in the study were randomized blindly to placebo or treatment. […]
After six weeks of treatment, the animals were again placed under Isofluran anaesthesia (68% N2O, 29% O2 and 2-3% Isofluran) with temperature control for echocardiographic and hemodynamic measurements, followed by euthanasia. Posterior left ventricular papillary muscles were then prepared, mounted in organ baths, equilibrated and field stimulated at 1 Hz (Sjaastad et al., 2003 supra) and the contraction-relaxation cycles (CRCs) were recorded and analysed as previously described with respect to maximal developed force (Fmax), maximal development of force (dF/dt)max, time to peak force (TPF), time to relaxation to 20% level (TR20) and relaxation time (RT=TR20-TPF). […]

[7] = test system: 5-HT2A receptor (Rattus norvegicus); settings: ketanserin 0.1 μmol/l
Sequence of 5-HT2A receptor (Rattus norvegicus) (Q62758 whole entry): as above
Experimental: as §4, with “RT was used as index of relaxation.” left out, “Mechanical response at the end of the equilibrium period was used as the control response.” left out
The responses for each concentration of agonist were generally calculated as percent of maximal response. […] The horizontal positioning of the concentration-response curves was expressed as pEC50-values (=−log EC50). Data are expressed as mean±standard error of the mean (SEM) and the number of animals expressed as n. The significance levels of differences were calculated according to Students t-test. […]

Compound: C[N+](C)(C)CCOC(N)=O [Carbachol, carbamylcholine]
inotropic response to serotonin after carbachol (reversal) ([1]; 30 μmol/l carbachol added after 10 μmol/l serotonin, p<0.01): 4.8±6.5%

Compound: Cl.NCCc1c[nH]c2ccc(O)cc12 [serotonin, 5-hydroxytryptamine hydrochloride]
increase in contractile force ([1]; 10 μmol/l serotonin, SEM, n=10): 44.5±2.9%
positive inotropic response above control level ([1]; 10 μmol/l serotonin, carbachol experiment, mean±SEM, n=5): 33.7±6.6%
time from addition of serotonin to maximal inotropic response ([1]; 10 μmol/l serotonin, prazosin, atropine and timolol present): 1 to 2 min
positive inotropic response to serotonin ([2]; 10 μmol/l serotonin, sham-operated animals, n=6): not seen in sham-operated animals
maximum inotropic response induced by serotonin (5-HT4 receptor [3]; pooled average with and without GR113808, SEM, n=12): 18.7±2.4%
inotropic response to serotonin [4]: elicited an inotropic response qualitatively similar to the response observed in CHF animals
inotropic response to serotonin (5-HT4 receptor [5]): positive inotropic response comparable in magnitude and characteristics to the positive inotropic response to 100 μM isoproterenol

Compound: CCCCN1CCC(CNC(=O)c2c3n(c4ccccc24)CCCO3)CC1 [SB207266, N-[(1-butyl-4-piperidinyl)methyl]-3,4-dihydro-2H-[1,3]oxazino[3,2-a]indole-locarboxamide hydrochloride]
maximal inotropic response to β-adrenoceptor stimulation (myocardial function) ([6]; vs placebo): trend towards normalisation
duration of the contraction-relaxation cycle ([6]; preliminary data, not shown): trend towards normalisation

shift of the concentration-response curve for serotonin [7]: did not shift
Compound: O=C(c1ccc(F)cc1)C1CCN(CCn2c(=O)[nH]c3ccccc3c2=O)CC1 [Ketanserin, 3-[2-[4-(4-fluorobenzoyl)-1-piperidinyl]ethyl]-2,4(1H,3H)-quinazolinedione]

pKb (5-HT4 receptor [3]; 6 week post MI rats, 5 nM antagonist): 9.1
Compound: O=C(OCCN1CCCCC1)c1c[nH]c2ccccc12 [SB203186, 1-piperidinyl-ethyl-1H-indole-3-carboxylate]
block of the inotropic response to serotonin (5-HT4 receptor [3]; 6 week post MI rats): block the inotropic response to serotonin

Kb (5-HT4 receptor [3]; 6 week post MI rats, 5 nM antagonist, read-out: pKb (converted)): 0.631 nM
Compound: COc1cc(COc2cc(N)c(Cl)cc2C(=O)CCC2CCN(CCNS(C)(=O)=O)CC2)cc(OC)c1 [RS39604, 1-[4-amino-5-chloro-2-(3,5-dimethoxybenzyloxy)phenyl]-3 [1-[2-[(methylsulf-onyl)amino]ethyl]-4-piperidinyl]-1-propanone hydrochloride]
block of the inotropic response to serotonin (5-HT4 receptor [3]; 6 week post MI rats): block the inotropic response to serotonin

Compound: CN1[C@@H]2CC[C@H]1CC(OC(=O)C(CO)c1ccccc1)C2.CN1[C@@H]2CC[C@H]1CC(OC(=O)C(CO)c1ccccc1)C2.O=S(=O)(O)O (stereo partly shown) [Atropine, atropine sulfate]
inotropic response to serotonin restored by atropine ([1]; 1 μmol/l atropine after serotonin and carbachol, p>0.06 vs serotonin alone): 45.1±5.1%
effect on serotonin-induced changes of TPF, TR2O and RT (contraction-relaxation cycle characteristics) ([1]; cumulative 10 μmol/l serotonin, 30 μmol/l carbachol, 1 μmol/l atropine): re-established the contraction-relaxation cycle characteristics

Compound: CC(C)NC[C@H](O)c1ccc(O)c(O)c1 [isoprenaline, (−)-isoprenaline hemisulphate]
inotropic effect (increase in contractile force) ([1]; 10 μmol/l isoprenaline as printed, SEM, n=10): 60.4±5.8% and 58.5±7%
RT (TR20−TPF), relaxation time ([1]; n=10, listed as ISO): 81.0 ± 1.8 ms
TPF (time to peak force) ([1]; n=10, listed as ISO): 123.1 ± 1.6 ms
TR20 (time to relaxation to 20% level) ([1]; n=10, listed as ISO): 204.1 ± 2.9 ms
RT (TR20−TPF), relaxation time ([1]; n=10, listed as Iso): 76.2 ± 1.8 % of control
TPF (time to peak force) ([1]; n=10, listed as Iso): 83.2 ± 1.7 % of control
TR20 (time to relaxation to 20% level) ([1]; n=10, listed as Iso): 80.3 ± 1.9 % of control
RT (TR20−TPF), relaxation time ([2]; listed as ISO): 75.0 ± 2.5 ms
TPF (time to peak force) ([2]; listed as ISO): 109.3 ± 2.7 ms
TR20 (time to relaxation to 20% level) ([2]; listed as ISO): 174.0 ± 4.9 ms
RT (TR20−TPF), relaxation time ([2]; listed as Iso): 69.4 ± 3.2 % of control
TPF (time to peak force) ([2]; listed as Iso): 87.4 ± 2.3 % of control
TR20 (time to relaxation to 20% level) ([2]; listed as Iso): 74.5 ± 1.7 % of control
positive inotropic response ([2]; isoprenaline, sham-operated animals, mean±SEM, n=6): 111.6±8.6%
